Assay results from US20220008553A1, “ANTI-ERBB2 ANTIBODY-DRUG CONJUGATE AND COMPOSITION THEREOF, PREPARATION METHOD THEREFOR, AND USE THEREOF” (SICHUAN KELUN-BIOTECH BIOPHARMACEUTICAL CO., LTD., priority 2015, published 2022).

Columns and labels:
[1] = system: ovarian cancer cell line SK-OV-3; conditions: mouse, in vivo
Description: (§1) The change of tumor volume and animal weight were measured for calculation of the efficacy (tumor-inhibitory efficacy) of the antibody-drug conjugates in the tumor-bearing mice.
(§2) After gently shaking, the mother solutions were sub-packed and stored at −80° C. Treatment solutions for use were obtained by dilution with normal saline, and a normal saline at the same concentration was used as solvent control.
(§3) The tumor-bearing mice (models obtained in 1.2) with tumor volume of 100-200 mm^3 were randomly assigned (the number of samples in each group was determined according to sample quantity), 7 mice per group. The dosage was 10 ml/kg. The route of administration was single intravenous injection in caudal vein. After administration, the tumor diameter was measured with vernier caliper twice a week for an observation period of 8 weeks, and the tumor volume was calculated according to the following equation: V=0.5 a^2×b, wherein a and b represent the […] of the tumor, respectively. Animal deaths were observed and recorded daily.
(§4) The tumor growth inhibition TGI (%) was calculated with the following equation for evaluating the antitumor efficacy of the antibody-drug conjugates: […]

[2] = system: human gastric cancer cell line NCI-N87; conditions: mouse, in vivo
Description: as §1, §2, §3, §4

[3] = system: breast cancer cell line BT474; conditions: mouse, in vivo
Description: as §1, §2, §3, §4

[4] = system: JIMT-1 cells; conditions: 3 mg/kg, single injection via tail vein, 31st day after injection
Description: (§5) NOD/SCID mice were subcutaneously inoculated with JIMT-1 cells to establish a subcutaneous xenograft model of human-derived breast cancer. […] Each group has 8 mice, and the administration was a single injection via tail vein. Tumor volume was measured on the 31st day after the single injection (i.e., 43rd day after inoculation of JIMT-1 cells), and TGI was calculated. The efficacy was evaluated based on TGI, and the tolerance was evaluated based on body weight changes and death of the mice. TGI was calculated as described above in (1).

[5] = system: Calu-3 cells; conditions: 1 mg/kg, single injection via tail vein, 31st day after injection
Description: as §5, with “BALB/c Nude” for “NOD/SCID”, “Calu-3” for “JIMT-1”, “lung adenocarcinoma.” for “breast cancer.”, “(36th” for “(i.e., 43rd”

[6] = system: BT-474 cells; conditions: 3 mg/kg, single injection via tail vein, 31st day after injection
Description: NOD/SCID mice were orthotopically inoculated with BT-474 cells to establish an orthotopic xenograft model of human-derived breast cancer. […] Each group has 10 mice, and the administration was a single injection via tail vein. Tumor volume was measured on the 31st day after the single injection (i.e., 39th day after inoculation of BT-474 cells), and TGI was calculated. The efficacy was evaluated based on TGI.
wherein VTe: Average tumor volume of treatment group at the end of observation • VTs: Average tumor volume of treatment group at the administration • VCe: Average tumor volume of control group at the end of observation • VCs: Average tumor volume of control group at the administration

[7] = system: BR0438 tumor mass; conditions: 15 mg/kg, single injection via tail vein, 21st day after injection
Description: as §5, with “BR0438 tumor mass” for “JIMT-1 cells”, “cancer. The administration was conducted when the average tumor volume reached 173 mm^3.” for “cancer.”, “21st” for “31st”, “injection,” for “injection (i.e., 43rd day after inoculation of JIMT-1 cells),”

[8] = system: MDA-MB-468 (HER2−); conditions: 1 h incubation, FACS
Description: (§6) The fluorescent intensity of cell surface binding was measured with FACS to determine the affinity of the drugs to the above cells.

[9] = system: JIMT-1 (HER2+); conditions: 1 h incubation, FACS
Description: as §6

[10] = system: BT-474 (HER2+++); conditions: 1 h incubation, FACS
Description: as §6

[11] = system: GA0006 tumor mass; conditions: 15 mg/kg, single injection via tail vein, 21st day after injection
Description: as §5, with “BALB/c nude” for “NOD/SCID”, “GA0006 tumor mass” for “JIMT-1 cells”, “gastric” for “breast”, “cancer. The administration was conducted when the average tumor volume reached 141 mm^3.” for “cancer.”, “21st” for “31st”, “injection,” for “injection (i.e., 43rd day after inoculation of JIMT-1 cells),”

Substance: T-DM1
- TGI (%) [1]: −11.04%
- final tumor volume (mm^3) [2]: 774.76 mm^3
- TGI (%) [3]: 54.80%
- TGI (%) [4]: 28%
- TGI (%) [5]: 64%
- TGI (%) [6]: 43%
- TGI (%) [7]: 3.65%
- affinity (EC50) (ng/ml) [8]: No binding
- affinity (EC50) [9]: 0.5105 µg/mL
- affinity (EC50) [10]: 2.419 µg/mL
- TGI (%) [11]: 86.97%
